Experimental data published in patent US12129221B2, “Difluoro phenyl amide RIP1 inhibitor” (SIRONAX LTD, priority 2018, dated 2024).
pEC50: −log10 of the molar value.

Columns and labels:
necrosis = assay: Necrosis inhibitory activity (cell necrosis / cell viability assay); assay type: cell-based; settings: Necrosis Inhibitory Activity, given as range; read-out: EC50
Source text: Necrosis Inhibitory Activity
Representative IC50 of hRIP1 Kinase Assay Correlated with Our IC50 of Cell Necrosis Assay: […]

ferroptosis = assay: Ferroptosis inhibitor activity; assay type: cell-based; settings: 1 uM threshold activity extrapolated
Source text: Ferroptosis Inhibitor Activity 1 Um Threshold Activity Extrapolated

| SMILES | pEC50 (necrosis) | pEC50 (ferroptosis) |
| --- | --- | --- |
| CC(C)(C(=O)N(O)Cc1ccccc1)C(F)(F)F [Compound 6, N-benzyl-3,3,3-trifluoro-N-hydroxy-2,2-dimethylpropanamide] | 6.00 to 9.00 | 5.00 to 6.00 |
| CCC(C)(C)C(=O)N(O)Cc1cccc(F)c1 [Compound 2, N-(3-fluorobenzyl)-N-hydroxy-2,2-dimethylbutanamide] | 6.00 to 9.00 | 5.00 to 6.00 |
| CC(C)(C(=O)N(O)Cc1ccc(Cl)cc1)C(F)(F)F [Compound 44, N-(4-chlorobenzyl)-3,3,3-trifluoro-N-hydroxy-2,2-dimethylpropanamide] | 6.00 to 9.00 | 5.00 to 6.00 |
| CCC(C)(C)C(=O)N(O)Cc1ccc(Br)cc1 [Compound 18, N-(4-bromobenzyl)-N-hydroxy-2,2-dimethylbutanamide] | 6.00 to 9.00 | 5.00 to 6.00 |
| CC(C)(C(=O)N(O)Cc1cc(F)cc(F)c1)C(F)(F)F [Compound 45, N-(3,5-difluorobenzyl)-3,3,3-trifluoro-N-hydroxy-2,2-dimethylpropanamide] | 6.00 to 9.00 | 5.00 to 6.00 |
| CCC(C)(C)C(=O)N(O)Cc1cccc(F)c1F [Compound 9, N-(2,3-difluorobenzyl)-N-hydroxy-2,2-dimethylbutanamide] | 6.00 to 9.00 | 5.00 to 6.00 |
| CCC1(C(=O)N(O)Cc2cc(F)cc(F)c2)CC1 [Compound 41, N-(3,5-difluorobenzyl)-1-ethyl-N-hydroxycyclopropane-1-carboxamide] | 5.00 to 6.00 | 5.00 to 6.00 |
| O=C(C1CCCC1)N(O)Cc1ccccc1 [Compound 33, N-benzyl-N-hydroxycydopentanecarboxamide] | 5.00 to 6.00 | 5.00 to 6.00 |
| CCC(C)(C)C(=O)N(O)Cc1sccc1C [Compound 22, N-hydroxy-2,2-dimethyl-N-((3-methylthiophen-2-yl)methyl)butanamide] | 5.00 to 6.00 | 5.00 to 6.00 |
| CCC(C)(C)C(=O)N(O)Cc1ccccn1 [Compound 8, N-hydroxy-2,2-dimethyl-N-(pyridin-2-ylmethyl)butanamide] | 5.00 to 6.00 | 5.00 to 6.00 |
| [2H]c1c([2H])c([2H])c(C([2H])([2H])N(O)C(=O)C(C)(C)CC)c([2H])c1[2H] [Compound 30, N-hydroxy-2,2-dimethyl-N-((phenyl-d5)methyl-d2)butanamide] | 6.00 to 9.00 | 5.00 to 6.00 |
| CC(C)(C(=O)N(O)Cc1cccs1)C(F)(F)F [Compound 49, 3,3,3-trifluoro-N-hydroxy-2,2-dimethyl-N-(thiophen-2-ylmethyl)propanamide] | 6.00 to 9.00 | 5.00 to 6.00 |
| CC1(C(=O)N(O)Cc2ccccc2)CCCCC1 [Compound 36, N-benzyl-N-hydroxy-1-methylcyclohexane-1-carboxamide] | 6.00 to 9.00 | 5.00 to 6.00 |
| O=C(N(O)Cc1ccccc1)C1(C(F)(F)F)CCCC1 [Compound 34, N-benzyl-N-hydroxy-1-(trifluoromethyl)cyclopentane-1-carboxamide] | 6.00 to 9.00 | 5.00 to 6.00 |
| CCC(C)(C)C(=O)N(O)CC1=CCCCC1 [Compound 25, N-(cyclohex-1-en-1-ylmethyl)-N-hydroxy-2,2-dimethylbutanamide] | 6.00 to 9.00 | 5.00 to 6.00 |
| CC(C)(C)C(=O)N(O)Cc1ccccc1 [Compound 7, N-benzyl-N-hydroxypivalamide] | 6.00 to 9.00 | 5.00 to 6.00 |
| Cc1cc(CN(O)C(=O)C(C)(C)C(F)(F)F)sc1C [Compound 47, N-((4,5-dimethylthiophen-2-yl)methyl)-3,3,3-trifluoro-N-hydroxy-2,2-dimethylpropanamide] | 6.00 to 9.00 | 5.00 to 6.00 |
| CCC(C)(C)C(=O)N(O)Cc1cc(F)cc(Cl)c1 [Compound 17, N-(3-chloro-5-fluorobenzyl)-N-hydroxy-2,2-dimethylbutanamide] | 6.00 to 9.00 | 5.00 to 6.00 |
| CC(C)(C(=O)N(O)Cc1ccc(F)cc1)C(F)(F)F [Compound 43, 3,3,3-trifluoro-N-(4-fluorobenzyl)-N-hydroxy-2,2-dimethylpropanamide] | 6.00 to 9.00 | 5.00 to 6.00 |
